Results as given in PMC8222276 (Communications Biology, 2021).

Tests used:
Format in all cases: cell-based
[1] = target: T1, CGRP receptor (CLR-RAMP1) in human cardiomyocytes (HCMs) (Homo sapiens, UniProt O60894+Q16602); assay: ERK1/2 phosphorylation in HCMs
T1 construct: primary human cardiomyocytes (HCMs) since these cells only expressed CLR and RAMP1; host or cells: primary human cardiomyocytes (HCMs)
Description: (§1) Data are analysed using a three-parameter non-linear regression curve or the operational model of receptor agonism. g, h Signalling bias plots were calculated as ∆Log(τ/KA) (g) or ∆∆Log(τ/KA) (h) for each agonist and for each signalling pathway. […] All data represent mean ± SEM for n repeats.
(§2) Primary cells were grown in 6 well plates, on the day of the experiment media was replaced with serum free media 4 h prior to cell harvesting. Tyrpsin-EDTA was used to dissociate the cells and they were collected by centrifugation, counted and re-suspended HBSS/BSA (0.1%). Ligands were also diluted in HBSS/BSA. Cells were then plated on 384 well plates in 8 μl aliquots at a density of 20,000 cells/well. Next, ligands were added (4 μl) for 5 min stimulation at room temperature. Cells were then lysed as per to the manufacturer’s instructions with 4 μl of lysis buffer (Cisbio phosphor-ERK1/2 cellular assay kit, Invitrogen, UK) for 30 min shaking at room temperature. The 2 specific antibodies; were pre-mixed in a 1:1 ratio. 4 μl of this was added to each well and the plate incubated for a further 2 h.
(§3) All sample sizes were determined, and data analysed, in accordance with the guidelines described by Curtis M et al.[65]. All experiments were appropriately controlled using ‘system pathway’ agonists. If any of these pathway controls generated inappropriate responses, then the entire data set was removed from analysis. […] Data analysis for cAMP accumulation, Ca^2+i mobilisation, NO accumulation, pERK1/2 activation, and cell proliferation assays were performed in GraphPad Prism 8.4 (GraphPad Software, San Diego). Data were fitted to obtain concentration–response curves using either the three-parameter logistic equation using to obtain values of Emax and pEC50 or the operational model of agonism. Statistical differences were analysed using one-way ANOVA followed by Dunnett’s post-hoc (for comparisons amongst more than two groups) or unpaired Student’s t test with Welch’s correction (for comparison between two groups). To account for the day-to-day variation experienced from the cultured cells, we used the maximal level of cAMP accumulation from cells in response to 100 μM forskolin stimulation was used as a reference, 10 μM ionomycin for Ca^2+i assays, 10 μM phorbol 12-myristate 13-acetate (PMA) for pERK1/2 activation, 10 μM acetylcholine for NO production and 10 μM VEGF for cell proliferation. […] Where appropriate the operational model for receptor agonism[27] was used to obtain efficacy (τ) and equilibrium disassociation constant (KA) values. In both cases, this normalisation removes the variation due to differences in days but retains the variance for control values. The means of individual experiments were combined to generate the curves shown. Having obtained values for τ and KA these were then used to quantify signalling bias as the change in Log(τ/KA)[19],[28]. Error for this composite measure was propagated by applying Eq. 1.1 PooledSEM=(SEMA)^2+(SEMB)^2 Where, SEMA and SEMB are the standard error of measurement A and B.

[2] = target: T2, CGRP receptor (CLR-RAMP1) in RAMP1-HUVECs (Homo sapiens, UniProt O60894+Q16602); assay: mobilisation of Ca2+i in RAMP1-HUVECs
T2 construct: biased agonism at the endogenous CLR in a physiological system; the open reading frame of RAMP1 into our HUVEC∆RAMP2 cell line; host or cells: HUVEC-∆RAMP2 (CRISPR-Cas9 RAMP2 knockout pool), lentiviral transduction, blasticidin selection
T2 sequence (Q16602 23-461): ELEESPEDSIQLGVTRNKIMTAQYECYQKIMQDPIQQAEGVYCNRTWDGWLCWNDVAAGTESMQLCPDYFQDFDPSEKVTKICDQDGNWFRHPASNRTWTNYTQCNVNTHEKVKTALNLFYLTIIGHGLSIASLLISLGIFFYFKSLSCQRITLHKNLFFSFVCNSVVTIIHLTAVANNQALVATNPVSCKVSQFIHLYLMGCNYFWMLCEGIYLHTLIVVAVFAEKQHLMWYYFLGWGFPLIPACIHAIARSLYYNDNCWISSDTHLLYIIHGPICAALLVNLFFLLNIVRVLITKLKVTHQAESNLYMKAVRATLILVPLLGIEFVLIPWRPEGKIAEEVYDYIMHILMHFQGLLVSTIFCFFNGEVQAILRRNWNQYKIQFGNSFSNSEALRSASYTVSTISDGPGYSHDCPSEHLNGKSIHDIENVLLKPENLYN
T2 sequence (O60894 27-148): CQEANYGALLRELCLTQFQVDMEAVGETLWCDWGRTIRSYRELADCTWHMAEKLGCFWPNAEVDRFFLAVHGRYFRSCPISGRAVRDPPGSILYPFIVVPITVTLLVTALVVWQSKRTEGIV
Description: (§4) Data are analysed using a three-parameter non-linear regression curve or the operational model of receptor agonism. g–h Signalling bias plots were calculated as ∆Log(τ/KA) (g) or ∆∆Log(τ/KA) (h) for each agonist and for each signalling pathway. […] All data represent mean ± SEM for n repeats.
All cell lines were plated at 20,000 cells/well on 96-well black clear-bottom plates (Costar, UK) 24 h before the experiment. […] Cells were then washed twice with calcium-free HBSS, then were left in 100 μl calcium-free HBSS for the duration of the assay. […] Data was normalised to the response seen with 10 μM Ionomycin.
All sample sizes were determined, and data analysed, in accordance with the guidelines described by Curtis M et al.[65]. All experiments were appropriately controlled using ‘system pathway’ agonists. If any of these pathway controls generated inappropriate responses, then the entire data set was removed from analysis. […] Data analysis for cAMP accumulation, Ca^2+i mobilisation, NO accumulation, pERK1/2 activation, and cell proliferation assays were performed in GraphPad Prism 8.4 (GraphPad Software, San Diego). Data were fitted to obtain concentration–response curves using either the three-parameter logistic equation using to obtain values of Emax and pEC50 or the operational model of agonism. Statistical differences were analysed using one-way ANOVA followed by Dunnett’s post-hoc (for comparisons amongst more than two groups) or unpaired Student’s t test with Welch’s correction (for comparison between two groups).

[3] = target: T1, CGRP receptor (CLR-RAMP1) in human cardiomyocytes (HCMs); assay: mobilisation of Ca2+i in HCMs
Description: as §1
All cell lines were plated at 20,000 cells/well on 96-well black clear-bottom plates (Costar, UK) 24 h before the experiment. […] Cells were then washed twice with calcium-free HBSS, then were left in 100 μl calcium-free HBSS for the duration of the assay. In conditions where Gαq/11/14 signalling is inhibited, cells were pre-treated with 100 nM YM-254890 (Alpha Laboratories, UK) (30 min)[22]. All assays were performed using the BD Pathway 855 Bioimaging Systems (BD Biosciences, UK), which dispenses ligands (20 μl) and reads immediately for 2 min. Data was normalised to the response seen with 10 μM Ionomycin.
as §3

[4] = target: T3, AM1 receptor (CLR-RAMP2) in HUAECs (Homo sapiens, UniProt O60895+Q16602); assay: ERK1/2 phosphorylation in HUAECs
T3 construct: host or cells: primary HUAECs
T3 sequence (Q16602 23-461): as the sequence (Q16602 23-461) above
T3 sequence (O60895 43-175): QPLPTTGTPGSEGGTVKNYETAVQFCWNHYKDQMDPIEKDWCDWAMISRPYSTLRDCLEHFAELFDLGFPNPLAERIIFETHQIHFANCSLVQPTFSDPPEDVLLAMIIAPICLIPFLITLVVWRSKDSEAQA
Description: as §2
as §3, with “B. […]” for “B.”

[5] = target: T2, CGRP receptor (CLR-RAMP1) in RAMP1-HUVECs; assay: ERK1/2 phosphorylation in RAMP1-HUVECs
Description: as §4, §2
All sample sizes were determined, and data analysed, in accordance with the guidelines described by Curtis M et al.[65]. All experiments were appropriately controlled using ‘system pathway’ agonists. If any of these pathway controls generated inappropriate responses, then the entire data set was removed from analysis.

[6] = pERK1/2, HCM, operational model, mean ± SEM
[7] = Ca2+i, RAMP1-HUVEC, operational model, mean ± SEM
[8] = Ca2+i, HCM, operational model, mean ± SEM
[9] = pERK1/2, HUAEC, operational model, mean ± SEM
[10] = pERK1/2, RAMP1-HUVEC, operational model, mean ± SEM

T1 sequence (Q16602 23-461): as the sequence (Q16602 23-461) above
T1 sequence (O60894 27-148): as the sequence (O60894 27-148) above

In the case of `CSCC[C@H](NC(=O)[C@H](CC(C)C)NC(=O)[C@H](CCC(N)=O)NC(=O)[C@H](Cc1c[nH]c2ccccc12)NC(=O)[C@H](CC(C)C)NC(=O)[C@H](CCCNC(=N)N)NC(=O)[C@H](Cc1c[nH]cn1)NC(=O)[C@H](CO)NC(=O)[C@H](CC(C)C)NC(=O)[C@H](CC(N)=O)NC(=O)[C@H](CCC(N)=O)NC(=O)[C@@H](NC(=O)[C@H](CCC(N)=O)NC(=O)[C@@H]1CSSC[C@H](NC(=O)CNC(=O)[C@@H](NC(=O)[C@H](CCCNC(=N)N)NC(=O)[C@H](CC(C)C)NC(=O)[C@H](CC(C)C)NC(=O)[C@H](CCC(N)=O)NC(=O)[C@H](C)NC(=O)[C@H](CCC(N)=O)NC(=O)[C@@H](N)[C@@H](C)O)C(C)C)C(=O)N[C@@H](C(C)C)C(=O)N[C@@H](CC(C)C)C(=O)NCC(=O)N[C@@H]([C@@H](C)O)C(=O)N1)C(C)C)C(=O)NCC(=O)N1CCC[C@H]1C(=O)N[C@@H](C)C(=O)NCC(=O)N[C@@H](CCCNC(=N)N)C(=O)N[C@@H](CCC(N)=O)C(=O)N[C@@H](CC(=O)O)C(=O)N[C@@H](CO)C(=O)N[C@@H](C)C(=O)N1CCC[C@H]1C(=O)N[C@H](C(=O)N[C@@H](CC(=O)O)C(=O)N1CCC[C@H]1C(=O)N[C@@H](CO)C(=O)N[C@@H](CO)C(=O)N1CCC[C@H]1C(=O)N[C@@H](Cc1c[nH]cn1)C(=O)N[C@@H](CO)C(=O)N[C@@H](Cc1ccc(O)cc1)C(N)=O)C(C)C` [AM2, adrenomedullin 2], the Emax [1] is reported as 40.4 ± 4.17%, the “Transducer coefficient Log(τ/KA)” value ([1]; pERK1/2, HCM, calculated from Table S2) is reported as 5.32±0.20 and the logτ [1, 6] is reported as -0.20±0.08. For the same compound, the pKA [1, 6] was 5.52±0.18, the Emax [2] was 41 ± 2.26% and the “Transducer coefficient Log(τ/KA)” value ([2]; Ca2+i, RAMP1-HUVEC, calculated from Table S2) was 5.46±0.19. It also gave a logτ [2, 7] of -0.18±0.06, a pKA [2, 7] of 5.64±0.18 and an Emax [3] of 36.5 ± 2.31%. The “Transducer coefficient Log(τ/KA)” value ([3]; Ca2+i, HCM, calculated from Table S2) was 7.61±0.35, the logτ [3, 8] was -0.30±0.05 and the pKA [3, 8] was 7.91±0.35. The Emax [4] was 17.6 ± 2.44%, the “Transducer coefficient Log(τ/KA)” value ([4]; pERK1/2, HUAEC, calculated from Table S1) was 4.76±0.35 and the logτ [4, 9] was -0.67±0.12. For the same compound, the pKA [4, 9] was 5.43±0.33, the Emax [5] was 45.4 ± 2.89% and the “Transducer coefficient Log(τ/KA)” value ([5]; pERK1/2, RAMP1-HUVEC, calculated from Table S2) was 6.50±0.15. For the same compound, the logτ [5, 10] was -0.06±0.05 and the pKA [5, 10] was 6.56±0.14.

`CC[C@H](C)[C@H](NC(=O)[C@H](CCC(N)=O)NC(=O)[C@H](Cc1c[nH]cn1)NC(=O)[C@H](C)NC(=O)[C@H](CC(C)C)NC(=O)[C@H](CCCCN)NC(=O)[C@H](CCC(N)=O)NC(=O)[C@@H](NC(=O)[C@@H](NC(=O)[C@@H]1CSSC[C@H](NC(=O)CNC(=O)[C@H](Cc2ccccc2)NC(=O)[C@H](CO)NC(=O)[C@H](CCCNC(=N)N)NC(=O)[C@H](CC(C)C)NC(=O)CNC(=O)[C@H](CCC(N)=O)NC(=O)[C@H](Cc2ccccc2)NC(=O)[C@H](CC(N)=O)NC(=O)[C@H](CC(N)=O)NC(=O)[C@H](CCSC)NC(=O)[C@H](CO)NC(=O)[C@H](CCC(N)=O)NC(=O)[C@H](CCCNC(=N)N)NC(=O)[C@@H](N)Cc2ccc(O)cc2)C(=O)N[C@@H](CCCNC(=N)N)C(=O)N[C@@H](Cc2ccccc2)C(=O)NCC(=O)N[C@@H]([C@@H](C)O)C(=O)N1)[C@@H](C)O)C(C)C)C(=O)N[C@@H](Cc1ccc(O)cc1)C(=O)N[C@@H](CCC(N)=O)C(=O)N[C@@H](Cc1ccccc1)C(=O)N[C@H](C(=O)N[C@@H](CC(=O)O)C(=O)N[C@@H](CCCCN)C(=O)N[C@@H](CC(=O)O)C(=O)N[C@@H](CCCCN)C(=O)N[C@@H](CC(=O)O)C(=O)N[C@@H](CC(N)=O)C(=O)N[C@H](C(=O)N[C@@H](C)C(=O)N1CCC[C@H]1C(=O)N[C@@H](CCCNC(=N)N)C(=O)N[C@@H](CO)C(=O)N[C@@H](CCCCN)C(=O)N[C@H](C(=O)N[C@@H](CO)C(=O)N1CCC[C@H]1C(=O)N[C@@H](CCC(N)=O)C(=O)NCC(=O)N[C@@H](Cc1ccc(O)cc1)C(N)=O)[C@@H](C)CC)C(C)C)[C@@H](C)O` [AM, adrenomedullin] gave an Emax ([1]; pERK1/2, HCM, 5 min, relative to 10 μM PMA, mean ± SEM, read-out: Emax) of 40.1 ± 2.02%, an Emax ([2]; Ca2+i, RAMP1-HUVEC, relative to 10 μM ionomycin, mean ± SEM, read-out: Emax) of 44.1 ± 1.42% and an Emax ([3]; Ca2+i, HCM, relative to 10 μM ionomycin, mean ± SEM, read-out: Emax) of 58.12 ± 0.15%. For the same compound, the Emax ([5]; pERK1/2, RAMP1-HUVEC, 5 min, relative to 10 μM PMA, mean ± SEM, read-out: Emax) was 47.6 ± 1.48%.
